In ChEMBL document CHEMBL1153020, “Smart conferring of nuclease resistance to DNA by 3'-end protection using 2',4'-bridged nucleoside-5'-triphosphates” (Bioorg Med Chem Lett, 2009):

Experiment: Stability assessed as nuclease resistance; call rule not given here
Assay type: ADME

Activity, Active:
Cc1cn([C@@H]2O[C@@]3(COP(=O)(O)OP(=O)(O)OP(=O)(O)O[C@H]4C[C@H](n5cc(C)c(=O)[nH]c5=O)O[C@@H]4COP(=O)(O)O[C@H]4C[C@H](n5cnc6c(=O)[nH]c(N)nc65)O[C@@H]4COP(=O)(O)O[C@H]4C[C@H](n5cnc6c(N)ncnc65)O[C@@H]4COP(=O)(O)O[C@H]4C[C@H](n5cnc6c(=O)[nH]c(N)nc65)O[C@@H]4COP(=O)(O)O[C@H]4C[C@H](n5cc(C)c(=O)[nH]c5=O)O[C@@H]4COP(=O)(O)O[C@H]4[C@@H](O)[C@H](n5cnc6c(=O)[nH]c(N)nc65)O[C@@H]4COP(=O)(O)O[C@H]4[C@@H](O)[C@H](n5cnc6c(N)ncnc65)O[C@@H]4COP(=O)(O)O[C@H]4C[C@H](n5cnc6c(=O)[nH]c(N)nc65)O[C@@H]4COP(=O)(O)O[C@H]4C[C@H](n5cc(C)c(=O)[nH]c5=O)O[C@@H]4COP(=O)(O)O[C@H]4C[C@H](n5cnc6c(N)ncnc65)O[C@@H]4COP(=O)(O)O[C@H]4C[C@H](n5cnc6c(N)ncnc65)O[C@@H]4COP(=O)(O)O[C@H]4C[C@H](n5cnc6c(=O)[nH]c(N)nc65)O[C@@H]4COP(=O)(O)O[C@H]4C[C@H](n5cc(C)c(=O)[nH]c5=O)O[C@@H]4COP(=O)(O)O[C@H]4C[C@H](n5cnc6c(=O)[nH]c(N)nc65)O[C@@H]4COP(=O)(O)O[C@H]4C[C@H](n5cnc6c(N)ncnc65)O[C@@H]4COP(=O)(O)O[C@H]4C[C@H](n5cnc6c(=O)[nH]c(N)nc65)O[C@@H]4COP(=O)(O)O[C@H]4C[C@H](n5cc(C)c(=O)[nH]c5=O)O[C@@H]4COP(=O)(O)O[C@H]4C[C@H](n5cnc6c(=O)[nH]c(N)nc65)O[C@@H]4COP(=O)(O)O[C@H]4C[C@H](n5cnc6c(N)ncnc65)O[C@@H]4COP(=O)(O)O[C@H]4C[C@H](n5cnc6c(=O)[nH]c(N)nc65)O[C@@H]4COP(=O)(O)O[C@H]4C[C@H](n5cc(C)c(=O)[nH]c5=O)O[C@@H]4COP(=O)(O)O[C@H]4C[C@H](n5cc(C)c(=O)[nH]c5=O)O[C@@H]4COP(=O)(O)O[C@H]4C[C@H](n5cnc6c(=O)[nH]c(N)nc65)O[C@@H]4COP(=O)(O)O[C@H]4C[C@H](n5ccc(N)nc5=O)O[C@@H]4COP(=O)(O)O[C@H]4C[C@H](n5cnc6c(=O)[nH]c(N)nc65)O[C@@H]4COP(=O)(O)O[C@H]4C[C@H](n5cnc6c(=O)[nH]c(N)nc65)O[C@@H]4CO)NCOC2[C@@H]3O)c(=O)[nH]c1=O
Cc1cn([C@H]2C[C@H](OP(=O)(O)OC[C@H]3O[C@@H](n4cnc5c(=O)[nH]c(N)nc54)C[C@@H]3OP(=O)(O)OC[C@H]3O[C@@H](n4cnc5c(N)ncnc54)C[C@@H]3OP(=O)(O)OC[C@H]3O[C@@H](n4cnc5c(=O)[nH]c(N)nc54)C[C@@H]3OP(=O)(O)OC[C@H]3O[C@@H](n4cc(C)c(=O)[nH]c4=O)C[C@@H]3O)[C@@H](COP(=O)(O)O[C@H]3[C@@H](O)[C@H](n4cnc5c(=O)[nH]c(N)nc54)O[C@@H]3COP(=O)(O)O[C@H]3[C@@H](O)[C@H](n4cnc5c(N)ncnc54)O[C@@H]3COP(=O)(O)O[C@H]3C[C@H](n4cnc5c(=O)[nH]c(N)nc54)O[C@@H]3COP(=O)(O)O[C@H]3C[C@H](n4cc(C)c(=O)[nH]c4=O)O[C@@H]3COP(=O)(O)O[C@H]3C[C@H](n4cnc5c(N)ncnc54)O[C@@H]3COP(=O)(O)O[C@H]3C[C@H](n4cnc5c(N)ncnc54)O[C@@H]3COP(=O)(O)O[C@H]3C[C@H](n4cnc5c(=O)[nH]c(N)nc54)O[C@@H]3COP(=O)(O)O[C@H]3C[C@H](n4cc(C)c(=O)[nH]c4=O)O[C@@H]3COP(=O)(O)O[C@H]3C[C@H](n4cnc5c(=O)[nH]c(N)nc54)O[C@@H]3COP(=O)(O)O[C@H]3C[C@H](n4cnc5c(N)ncnc54)O[C@@H]3COP(=O)(O)O[C@H]3C[C@H](n4cnc5c(=O)[nH]c(N)nc54)O[C@@H]3COP(=O)(O)O[C@H]3C[C@H](n4cc(C)c(=O)[nH]c4=O)O[C@@H]3COP(=O)(O)O[C@H]3C[C@H](n4cnc5c(=O)[nH]c(N)nc54)O[C@@H]3COP(=O)(O)O[C@H]3C[C@H](n4cnc5c(N)ncnc54)O[C@@H]3COP(=O)(O)O[C@H]3C[C@H](n4cnc5c(=O)[nH]c(N)nc54)O[C@@H]3COP(=O)(O)O[C@H]3C[C@H](n4cc(C)c(=O)[nH]c4=O)O[C@@H]3COP(=O)(O)O[C@H]3C[C@H](n4cc(C)c(=O)[nH]c4=O)O[C@@H]3COP(=O)(O)O[C@H]3C[C@H](n4cnc5c(=O)[nH]c(N)nc54)O[C@@H]3COP(=O)(O)O[C@H]3C[C@H](n4ccc(N)nc4=O)O[C@@H]3COP(=O)(O)O[C@H]3C[C@H](n4cnc5c(=O)[nH]c(N)nc54)O[C@@H]3COP(=O)(O)O[C@H]3C[C@H](n4cnc5c(=O)[nH]c(N)nc54)O[C@@H]3CO)O2)c(=O)[nH]c1=O
Cc1cn([C@@H]2O[C@@]3(COP(=O)(O)OP(=O)(O)OP(=O)(O)O[C@H]4C[C@H](n5cc(C)c(=O)[nH]c5=O)O[C@@H]4COP(=O)(O)O[C@H]4C[C@H](n5cnc6c(=O)[nH]c(N)nc65)O[C@@H]4COP(=O)(O)O[C@H]4C[C@H](n5cnc6c(N)ncnc65)O[C@@H]4COP(=O)(O)O[C@H]4C[C@H](n5cnc6c(=O)[nH]c(N)nc65)O[C@@H]4COP(=O)(O)O[C@H]4C[C@H](n5cc(C)c(=O)[nH]c5=O)O[C@@H]4COP(=O)(O)O[C@H]4[C@@H](O)[C@H](n5cnc6c(=O)[nH]c(N)nc65)O[C@@H]4COP(=O)(O)O[C@H]4[C@@H](O)[C@H](n5cnc6c(N)ncnc65)O[C@@H]4COP(=O)(O)O[C@H]4C[C@H](n5cnc6c(=O)[nH]c(N)nc65)O[C@@H]4COP(=O)(O)O[C@H]4C[C@H](n5cc(C)c(=O)[nH]c5=O)O[C@@H]4COP(=O)(O)O[C@H]4C[C@H](n5cnc6c(N)ncnc65)O[C@@H]4COP(=O)(O)O[C@H]4C[C@H](n5cnc6c(N)ncnc65)O[C@@H]4COP(=O)(O)O[C@H]4C[C@H](n5cnc6c(=O)[nH]c(N)nc65)O[C@@H]4COP(=O)(O)O[C@H]4C[C@H](n5cc(C)c(=O)[nH]c5=O)O[C@@H]4COP(=O)(O)O[C@H]4C[C@H](n5cnc6c(=O)[nH]c(N)nc65)O[C@@H]4COP(=O)(O)O[C@H]4C[C@H](n5cnc6c(N)ncnc65)O[C@@H]4COP(=O)(O)O[C@H]4C[C@H](n5cnc6c(=O)[nH]c(N)nc65)O[C@@H]4COP(=O)(O)O[C@H]4C[C@H](n5cc(C)c(=O)[nH]c5=O)O[C@@H]4COP(=O)(O)O[C@H]4C[C@H](n5cnc6c(=O)[nH]c(N)nc65)O[C@@H]4COP(=O)(O)O[C@H]4C[C@H](n5cnc6c(N)ncnc65)O[C@@H]4COP(=O)(O)O[C@H]4C[C@H](n5cnc6c(=O)[nH]c(N)nc65)O[C@@H]4COP(=O)(O)O[C@H]4C[C@H](n5cc(C)c(=O)[nH]c5=O)O[C@@H]4COP(=O)(O)O[C@H]4C[C@H](n5cc(C)c(=O)[nH]c5=O)O[C@@H]4COP(=O)(O)O[C@H]4C[C@H](n5cnc6c(=O)[nH]c(N)nc65)O[C@@H]4COP(=O)(O)O[C@H]4C[C@H](n5ccc(N)nc5=O)O[C@@H]4COP(=O)(O)O[C@H]4C[C@H](n5cnc6c(=O)[nH]c(N)nc65)O[C@@H]4COP(=O)(O)O[C@H]4C[C@H](n5cnc6c(=O)[nH]c(N)nc65)O[C@@H]4CO)COC2[C@@H]3O)c(=O)[nH]c1=O
Cc1cn([C@@H]2O[C@@]3(COP(=O)(O)OP(=O)(O)OP(=O)(O)O[C@H]4C[C@H](n5cc(C)c(=O)[nH]c5=O)O[C@@H]4COP(=O)(O)O[C@H]4C[C@H](n5cnc6c(=O)[nH]c(N)nc65)O[C@@H]4COP(=O)(O)O[C@H]4C[C@H](n5cnc6c(N)ncnc65)O[C@@H]4COP(=O)(O)O[C@H]4C[C@H](n5cnc6c(=O)[nH]c(N)nc65)O[C@@H]4COP(=O)(O)O[C@H]4C[C@H](n5cc(C)c(=O)[nH]c5=O)O[C@@H]4COP(=O)(O)O[C@H]4[C@@H](O)[C@H](n5cnc6c(=O)[nH]c(N)nc65)O[C@@H]4COP(=O)(O)O[C@H]4[C@@H](O)[C@H](n5cnc6c(N)ncnc65)O[C@@H]4COP(=O)(O)O[C@H]4C[C@H](n5cnc6c(=O)[nH]c(N)nc65)O[C@@H]4COP(=O)(O)O[C@H]4C[C@H](n5cc(C)c(=O)[nH]c5=O)O[C@@H]4COP(=O)(O)O[C@H]4C[C@H](n5cnc6c(N)ncnc65)O[C@@H]4COP(=O)(O)O[C@H]4C[C@H](n5cnc6c(N)ncnc65)O[C@@H]4COP(=O)(O)O[C@H]4C[C@H](n5cnc6c(=O)[nH]c(N)nc65)O[C@@H]4COP(=O)(O)O[C@H]4C[C@H](n5cc(C)c(=O)[nH]c5=O)O[C@@H]4COP(=O)(O)O[C@H]4C[C@H](n5cnc6c(=O)[nH]c(N)nc65)O[C@@H]4COP(=O)(O)O[C@H]4C[C@H](n5cnc6c(N)ncnc65)O[C@@H]4COP(=O)(O)O[C@H]4C[C@H](n5cnc6c(=O)[nH]c(N)nc65)O[C@@H]4COP(=O)(O)O[C@H]4C[C@H](n5cc(C)c(=O)[nH]c5=O)O[C@@H]4COP(=O)(O)O[C@H]4C[C@H](n5cnc6c(=O)[nH]c(N)nc65)O[C@@H]4COP(=O)(O)O[C@H]4C[C@H](n5cnc6c(N)ncnc65)O[C@@H]4COP(=O)(O)O[C@H]4C[C@H](n5cnc6c(=O)[nH]c(N)nc65)O[C@@H]4COP(=O)(O)O[C@H]4C[C@H](n5cc(C)c(=O)[nH]c5=O)O[C@@H]4COP(=O)(O)O[C@H]4C[C@H](n5cc(C)c(=O)[nH]c5=O)O[C@@H]4COP(=O)(O)O[C@H]4C[C@H](n5cnc6c(=O)[nH]c(N)nc65)O[C@@H]4COP(=O)(O)O[C@H]4C[C@H](n5ccc(N)nc5=O)O[C@@H]4COP(=O)(O)O[C@H]4C[C@H](n5cnc6c(=O)[nH]c(N)nc65)O[C@@H]4COP(=O)(O)O[C@H]4C[C@H](n5cnc6c(=O)[nH]c(N)nc65)O[C@@H]4CO)COCOC2[C@@H]3O)c(=O)[nH]c1=O
